Test results published in ChEMBL document CHEMBL2321873, “1-(4-Phenylpiperazin-1-yl)-2-(1H-pyrazol-1-yl)ethanones as novel CCR1 antagonists” (Bioorg Med Chem Lett, 2013).
Calls of active or inactive are those of the source. No cut-off for these calls is given here.

Columns and labels:
[1] = molecular target: T1, G protein-coupled receptor (Human herpesvirus 8) (UniProt Q76SF8); assay: Binding affinity to HHV8 ORF74 at 10 uM by radioligand displacement assay; settings: Human gammaherpesvirus 8
T1 sequence (whole entry): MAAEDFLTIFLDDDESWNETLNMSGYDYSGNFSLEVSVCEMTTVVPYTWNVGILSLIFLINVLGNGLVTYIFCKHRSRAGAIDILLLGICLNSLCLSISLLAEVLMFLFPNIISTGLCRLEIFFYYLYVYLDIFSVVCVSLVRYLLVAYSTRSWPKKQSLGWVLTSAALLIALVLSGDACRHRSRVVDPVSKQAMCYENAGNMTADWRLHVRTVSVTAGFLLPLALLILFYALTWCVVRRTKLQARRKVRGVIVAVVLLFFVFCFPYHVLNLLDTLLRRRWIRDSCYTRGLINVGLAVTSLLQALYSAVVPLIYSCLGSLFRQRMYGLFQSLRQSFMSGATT

[2] = molecular target: C-X-C chemokine receptor type 4 (Homo sapiens) (UniProt P61073); assay: Antagonist activity at CXCR4 (unknown origin) assessed as inhibition of chemotaxis at 10 uM
[3] = molecular target: C-C chemokine receptor type 5 (Homo sapiens) (UniProt P51681); assay: Antagonist activity at CCR5 (unknown origin) assessed as inhibition of calcium flux at 10 uM; format: functional
[4] = molecular target: C-C chemokine receptor type 2 (Homo sapiens) (UniProt P41597); assay: Antagonist activity at CCR2 (unknown origin) assessed as inhibition of calcium flux at 10 uM; format: functional
[5] = Oral bioavailability in Beagle dog at 5 mg/kg; format: ADME, organism-based, Canis lupus familiaris; settings: in vivo
[6] = molecular target: T2, C-C chemokine receptor type 6 (Homo sapiens) (UniProt P51684); assay: Antagonist activity at CCR6 (unknown origin) assessed as inhibition of chemotaxis at 10 uM
T2 sequence (whole entry): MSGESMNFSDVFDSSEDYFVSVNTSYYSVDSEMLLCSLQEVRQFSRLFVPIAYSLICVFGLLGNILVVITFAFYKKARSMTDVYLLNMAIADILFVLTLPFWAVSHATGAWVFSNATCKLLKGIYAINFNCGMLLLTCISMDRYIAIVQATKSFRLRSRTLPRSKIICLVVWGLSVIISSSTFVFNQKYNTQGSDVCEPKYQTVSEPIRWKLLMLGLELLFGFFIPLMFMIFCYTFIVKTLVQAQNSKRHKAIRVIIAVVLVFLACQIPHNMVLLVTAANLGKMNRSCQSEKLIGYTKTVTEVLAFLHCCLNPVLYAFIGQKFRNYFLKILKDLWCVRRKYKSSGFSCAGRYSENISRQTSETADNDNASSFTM

Salmonella typhimurium = assay: Genotoxicity in Salmonella typhimurium by Ames test in presence of S9 fractions; format: toxicity, organism-based, S9 Fraction; settings: salmonella enterica subsp. enterica serovar typhimurium
[7] = molecular target: T3, C-X-C chemokine receptor type 3 (Homo sapiens) (UniProt P49682); assay: Binding affinity to CXCR3 (unknown origin) at 10 uM by radioligand displacement assay
T3 sequence (whole entry): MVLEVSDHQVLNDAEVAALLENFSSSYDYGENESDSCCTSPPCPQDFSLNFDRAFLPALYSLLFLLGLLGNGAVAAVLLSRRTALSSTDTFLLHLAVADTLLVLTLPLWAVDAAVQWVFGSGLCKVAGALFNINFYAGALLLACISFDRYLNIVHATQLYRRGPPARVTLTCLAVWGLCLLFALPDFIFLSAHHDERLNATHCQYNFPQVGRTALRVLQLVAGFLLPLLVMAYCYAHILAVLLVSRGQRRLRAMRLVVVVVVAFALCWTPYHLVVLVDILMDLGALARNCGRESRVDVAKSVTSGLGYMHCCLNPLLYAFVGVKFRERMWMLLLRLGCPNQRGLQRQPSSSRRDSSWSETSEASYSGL

[8] = molecular target: T4, CX3C chemokine receptor 1 (Homo sapiens) (UniProt P49238); assay: Binding affinity to CX3CR1 (unknown origin) at 10 uM by radioligand displacement assay
T4 sequence (whole entry): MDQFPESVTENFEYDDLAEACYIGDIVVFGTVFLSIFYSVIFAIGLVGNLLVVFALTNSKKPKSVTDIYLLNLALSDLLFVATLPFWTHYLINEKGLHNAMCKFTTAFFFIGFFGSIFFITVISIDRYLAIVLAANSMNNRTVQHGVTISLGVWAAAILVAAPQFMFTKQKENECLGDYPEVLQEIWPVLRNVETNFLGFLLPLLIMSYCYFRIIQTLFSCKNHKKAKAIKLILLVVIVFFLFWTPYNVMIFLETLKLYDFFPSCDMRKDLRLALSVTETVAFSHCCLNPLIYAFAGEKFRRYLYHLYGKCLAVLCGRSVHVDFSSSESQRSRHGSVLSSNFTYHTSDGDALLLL

[9] = molecular target: Atypical chemokine receptor 3 (Homo sapiens) (UniProt P25106); assay: Antagonist activity at CXCR7 (unknown origin) assessed as inhibition of calcium flux at 10 uM; format: functional
[10] = molecular target: T2, C-C chemokine receptor type 6 (Homo sapiens); assay: Antagonist activity at CCR6 (unknown origin) assessed as inhibition of calcium flux at 10 uM; format: functional
[11] = molecular target: C-X-C chemokine receptor type 6 (Homo sapiens) (UniProt O00574); assay: Antagonist activity at CXCR6 (unknown origin) assessed as inhibition of chemotaxis at 10 uM
[12] = molecular target: C-C chemokine receptor type 8 (Homo sapiens) (UniProt P51685); assay: Antagonist activity at CCR8 (unknown origin) assessed as inhibition of calcium flux at 10 uM; format: functional
Cytochrome P450 2C9 = Cytochrome P450 2C9 (Homo sapiens, UniProt P11712); assay: Competitive inhibition of CYP2C9 (unknown origin); format: ADME
[13] = molecular target: T5, C-X-C chemokine receptor type 5 (Homo sapiens) (UniProt P32302); assay: Binding affinity to CXCR5 (unknown origin) at 10 uM by radioligand displacement assay
T5 sequence (whole entry): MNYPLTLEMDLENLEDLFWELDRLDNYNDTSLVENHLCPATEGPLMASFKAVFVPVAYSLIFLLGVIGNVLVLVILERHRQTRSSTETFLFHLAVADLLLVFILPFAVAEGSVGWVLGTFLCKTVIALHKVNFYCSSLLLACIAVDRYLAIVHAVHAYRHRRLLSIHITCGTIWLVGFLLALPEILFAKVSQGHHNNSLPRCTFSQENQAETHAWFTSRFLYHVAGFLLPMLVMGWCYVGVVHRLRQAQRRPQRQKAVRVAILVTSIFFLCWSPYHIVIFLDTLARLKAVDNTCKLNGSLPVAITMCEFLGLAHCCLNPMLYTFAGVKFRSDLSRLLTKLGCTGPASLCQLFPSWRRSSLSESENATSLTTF

[14] = Half life in Beagle dog at 1 mg/kg, iv; format: ADME, organism-based, Canis lupus familiaris; design: dose 1 mg/kg, route intravenous; settings: in vivo

Sequence of Cytochrome P450 2C9 (P11712 whole entry): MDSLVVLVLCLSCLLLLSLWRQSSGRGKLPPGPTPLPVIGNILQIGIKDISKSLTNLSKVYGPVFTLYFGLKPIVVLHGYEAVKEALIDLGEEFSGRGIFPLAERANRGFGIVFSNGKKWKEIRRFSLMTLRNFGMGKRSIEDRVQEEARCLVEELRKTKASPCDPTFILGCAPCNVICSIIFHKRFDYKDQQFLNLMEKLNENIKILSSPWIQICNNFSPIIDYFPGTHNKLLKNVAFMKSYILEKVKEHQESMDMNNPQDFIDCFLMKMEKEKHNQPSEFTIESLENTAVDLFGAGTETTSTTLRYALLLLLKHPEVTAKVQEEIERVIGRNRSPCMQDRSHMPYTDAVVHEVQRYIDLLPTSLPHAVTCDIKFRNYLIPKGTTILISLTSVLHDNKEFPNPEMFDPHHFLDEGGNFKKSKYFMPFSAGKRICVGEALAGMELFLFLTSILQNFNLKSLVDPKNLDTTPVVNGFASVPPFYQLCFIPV
Sequence of C-C chemokine receptor type 2 (Homo sapiens) (P41597 whole entry, looked up): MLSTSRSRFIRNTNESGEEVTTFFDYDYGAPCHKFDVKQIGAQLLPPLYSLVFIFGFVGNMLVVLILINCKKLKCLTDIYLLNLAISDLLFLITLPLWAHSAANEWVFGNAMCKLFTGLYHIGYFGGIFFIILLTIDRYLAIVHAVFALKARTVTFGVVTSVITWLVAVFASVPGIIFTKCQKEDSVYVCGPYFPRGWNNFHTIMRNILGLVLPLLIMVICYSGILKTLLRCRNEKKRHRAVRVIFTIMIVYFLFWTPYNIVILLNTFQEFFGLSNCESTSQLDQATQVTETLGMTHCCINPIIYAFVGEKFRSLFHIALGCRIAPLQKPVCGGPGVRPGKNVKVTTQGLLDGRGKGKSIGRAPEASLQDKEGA
Sequence of C-C chemokine receptor type 5 (Homo sapiens) (P51681 whole entry, looked up): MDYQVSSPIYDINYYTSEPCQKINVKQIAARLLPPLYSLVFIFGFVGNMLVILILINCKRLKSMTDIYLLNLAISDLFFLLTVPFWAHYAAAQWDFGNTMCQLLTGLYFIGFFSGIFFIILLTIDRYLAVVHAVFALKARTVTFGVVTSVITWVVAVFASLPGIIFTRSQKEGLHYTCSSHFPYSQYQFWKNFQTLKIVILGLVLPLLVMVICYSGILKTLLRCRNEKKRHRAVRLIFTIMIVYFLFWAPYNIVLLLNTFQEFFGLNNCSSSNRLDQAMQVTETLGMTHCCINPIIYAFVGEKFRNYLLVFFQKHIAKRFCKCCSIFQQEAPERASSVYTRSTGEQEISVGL
Sequence of Atypical chemokine receptor 3 (Homo sapiens) (P25106 whole entry): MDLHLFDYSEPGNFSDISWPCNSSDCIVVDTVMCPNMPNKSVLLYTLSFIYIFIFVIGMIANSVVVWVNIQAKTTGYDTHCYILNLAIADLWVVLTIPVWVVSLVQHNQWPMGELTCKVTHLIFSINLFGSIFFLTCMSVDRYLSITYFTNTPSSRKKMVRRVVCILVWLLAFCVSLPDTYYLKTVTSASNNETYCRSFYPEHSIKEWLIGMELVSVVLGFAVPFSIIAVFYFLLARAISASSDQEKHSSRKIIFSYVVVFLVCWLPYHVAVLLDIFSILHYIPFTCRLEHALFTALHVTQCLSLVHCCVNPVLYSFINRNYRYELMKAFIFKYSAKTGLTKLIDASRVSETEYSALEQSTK
Sequence of C-X-C chemokine receptor type 4 (Homo sapiens) (P61073 whole entry): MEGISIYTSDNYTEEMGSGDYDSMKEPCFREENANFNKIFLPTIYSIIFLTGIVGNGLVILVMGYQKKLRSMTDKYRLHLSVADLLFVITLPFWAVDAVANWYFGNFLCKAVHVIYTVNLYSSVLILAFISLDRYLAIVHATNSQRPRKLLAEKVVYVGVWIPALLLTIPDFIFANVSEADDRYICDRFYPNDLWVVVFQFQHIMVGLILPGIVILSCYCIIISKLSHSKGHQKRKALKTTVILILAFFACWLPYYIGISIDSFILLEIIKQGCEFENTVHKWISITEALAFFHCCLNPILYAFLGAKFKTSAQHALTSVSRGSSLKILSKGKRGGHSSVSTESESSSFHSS
Sequence of C-C chemokine receptor type 8 (Homo sapiens) (P51685 whole entry): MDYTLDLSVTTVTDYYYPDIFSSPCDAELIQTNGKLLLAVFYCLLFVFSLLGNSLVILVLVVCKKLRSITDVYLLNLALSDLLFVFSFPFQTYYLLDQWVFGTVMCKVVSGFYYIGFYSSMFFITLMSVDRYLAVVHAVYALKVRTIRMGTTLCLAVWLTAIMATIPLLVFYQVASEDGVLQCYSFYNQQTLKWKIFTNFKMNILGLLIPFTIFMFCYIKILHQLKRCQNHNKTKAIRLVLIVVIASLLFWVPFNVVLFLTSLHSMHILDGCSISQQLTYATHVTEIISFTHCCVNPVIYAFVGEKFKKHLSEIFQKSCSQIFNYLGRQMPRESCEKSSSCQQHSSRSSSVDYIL
Sequence of C-X-C chemokine receptor type 6 (Homo sapiens) (O00574 whole entry, looked up): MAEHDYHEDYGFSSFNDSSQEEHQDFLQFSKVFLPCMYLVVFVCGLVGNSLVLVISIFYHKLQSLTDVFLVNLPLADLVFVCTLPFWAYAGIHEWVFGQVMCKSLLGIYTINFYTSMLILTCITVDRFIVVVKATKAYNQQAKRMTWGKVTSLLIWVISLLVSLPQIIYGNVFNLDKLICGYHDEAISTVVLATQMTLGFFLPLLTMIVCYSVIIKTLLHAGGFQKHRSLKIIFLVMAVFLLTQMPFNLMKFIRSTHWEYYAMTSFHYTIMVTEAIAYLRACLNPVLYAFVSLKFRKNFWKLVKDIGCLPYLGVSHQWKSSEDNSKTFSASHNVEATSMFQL

For `COc1cc(N2CCN(C(=O)Cn3nc(C(F)(F)F)c(Cl)c3C)CC2)ccc1Cl`, the Activity [1] was “inactive”, the inhibition [2] was “inactive” and the inhibition [3] was “inactive”. For the same compound, the inhibition [4] was “inactive”, the bioavailability [5] was 20% and the inhibition [6] was “inactive”. The Activity (Salmonella typhimurium) was “Non-toxic”, the Activity [7] was “inactive” and the Activity [8] was “inactive”. For the same compound, the inhibition [9] was “inactive”, the inhibition [10] was “inactive” and the inhibition [11] was “inactive”. For the same compound, the inhibition [12] was “inactive”, the IC50 (Cytochrome P450 2C9) was > 10 µM and the Activity [13] was “inactive”. For the same compound, the half-life [14] was 13.4 h.
